Laboratory results reported in patent US10071108B2, “Methods and pharmaceutical compositions for the treatment of hepatitis b virus infection” (INSERM (INSTITUT NATIONAL DE LA SANTÉ ET DE LA RECHERCHE …, priority 2013, dated 2018).
Entries after “also recorded” stand apart in the source; their conditions may differ.

Tests used:
HBV [1] = test: Secretion of HBeAg in supernatant of HBV infected HepaRG cells; type: cell-based, hepatitis B virus; conditions: for effect on HBeAg secretion in supernatant: HBV infected HepaRG, treated days 4, 7 and 11 post infection, supernatant day 14
Text: (§1) Cell supernatants were collected 14 days post infection for quantification of HBsAg, HBeAg (Architec Abbott) or HBV DNA by quantitative PCR using rcDNA primers (n=3±SEM). FIG. 2A—Both FXR agonists, GW4064 and 6ECDCA, inhibit the secretion of HBsAg and HBeAg in the supernatant in a dose-dependent manner whereas UDCA and 052EDL133 have no effect on the antigen secretion. FIG. 2B—Both FXR agonists, GW4064 and 6ECDCA, inhibit the secretion of infectious HBV DNA positive viral particles in the supernatant in a dose-dependent manner. […] FIG. 2C—The FXR agonist PXL007 represses HBsAg, HBeAg and HBV DNA in a dose-dependent manner.
(§2) The HepaRG line derived from a human cellularhepato carcinoma can differentiate and regain many phenotypic traits of hepatocytes after 4 weeks of culture under defined conditions (Hantz O. et al., 2009, J Gen Virol, 90:127-135). After differentiation, these cells are susceptible to infection at high MOI of HBV virions produced by HepG2.2.15 line. Under these conditions viral production can be observed in the second week post infection. This system allows the study of most steps of the viral replication cycle, including penetration into the cell, translocation of the viral genome into the nucleus, the repair and synthesis of the cccDNA, transcription of pregenomic and viral mRNAs as well as later stages of the replication cycle with the synthesis of viral proteins, the assembly and secretion of infectious virions and the secretion of the viral proteins HBs and HBe.
(§3) The HepaRG system thus allows the monitoring of the secretion of HBsAg and HBeAg and virion incorporated DNA into the cell culture supernatant after infection with HBV infectious virion stocks prepared from the HepG2.2.15 cell line. This system also allows the monitoring of the synthesis of pregenomic and viral mRNAs as well as cytoplasmic replication intermediates and cccDNA. The effects of molecules on cell physiology and cell differentiated functions were explored, including the quantification of hepatic markers such as albumin and apolipoprotein B. The effects of the compounds on the cellular bile acid pathway were monitored by analysis and quantification of the FXR mRNA as well as the SHP and apoA1 encoding mRNAs the expression of which is under the control of FXR

APOA1 = APOA1 mRNA expression in HBV infected HepaRG cells (qPCR); type: cell-based, human; conditions: 10 days treatment
Text: (§4) Differentiated HepaRG cells were infected and treated as described in FIG. 1 legend. Cells were lysed and RNA was extracted, then reverse transcribed into cDNA for qPCR. The expression levels of 3 genes of interest were quantified: FXRα, SHP and APOA1, as well as 3 housekeeping genes for normalization (n=3±SEM). FXR agonists, GW4064 and 6ECDCA, inhibit the expression of FXR mRNA in a dose-dependent manner. SHP and APOA1 are two genes under the regulation of FXR; SHP is induced by FXR while APOA1 is repressed. Here, SHP mRNA expression increases with GW4064 and 6ECDCA treatments, while APOA1 mRNA expression decreases.
as §3

SHP = SHP mRNA expression in HBV infected HepaRG cells (qPCR); type: cell-based, human; conditions: 10 days treatment
Text: as §4, §3

HBV [2] = test: Secretion of HBV DNA in supernatant of HBV infected HepaRG cells (quantitative PCR); type: cell-based, hepatitis B virus; conditions: for effect on secretion of HBV DNA (virions) in supernatant: supernatant day 14, quantitative PCR
Text: as §1
Differentiated HepaRG cells were infected and treated as described in FIG. 1 legend. Cell supernatants were collected 14 days post infection. (FIG. 8A) Quantification of HBsAg and HBeAg secretion. (FIG. 8B) Quantification of secreted infectious particles by DNA extraction and quantification by qPCR.
as §2, §3

HBV [3] = test: HBV pregenomic/precore mRNA in infected HepaRG cells (qRT-PCR, Northern blot); type: cell-based, hepatitis B virus
Text: Differentiated HepaRG cells were infected and treated as described in FIG. 1 legend. Cells were lysed and RNA was extracted, then either reverse transcribed into cDNA for quantitative PCR (qRT-PCR) (FIG. 4A) or used in Northern Blot experiment (FIG. 4B). The same experiment was repeated and DNA was extracted. Following plasmid-safe DNase treatment, cccDNA expression was quantified by qPCR experiment using specific HBV cccDNA primers and TaqMan probe (n=3±SEM) (FIG. 4C). cccDNA quantification was normalized to the number of βglobin gene. The expression levels of HBV pregenomic gene were quantified, as well as 3 housekeeping genes for normalization (n=3±SEM). […]
as §3, with “This system also allows the monitoring of the synthesis of pregenomic and viral mRNAs as well as cytoplasmic replication intermediates and cccDNA.” left out

FXRα = test: FXR mRNA expression in HBV infected HepaRG cells (qPCR); type: cell-based, human; conditions: 10 days treatment
Text: as §4, §3

HBV [4] = test: Expression of HBV core protein (HBc) in infected HepaRG cells, immunofluorescence; type: cell-based, hepatitis B virus; conditions: fixed day 14 post infection, anti-HBc immunofluorescence
Procedure: Differentiated HepaRG cells grown on coverslips were infected and treated as described in FIG. 1 legend (n=3±SEM). Cells were fixed on day 14 post infection and immunocytochemistry using anti-HBc antibody was carried out.

HBV [5] = test: Secretion of HBsAg in supernatant of HBV infected HepaRG cells; type: cell-based, hepatitis B virus; conditions: for effect on HBsAg secretion in supernatant: treated days 4, 7 and 11 post infection, supernatant day 14
Text: Differentiated HepaRG cells were infected with HBV (100 geq/cell for 24 hr), then treated 3 successive times (days 4, 7 and 11 post infection) with FXR modulators at indicated concentrations in μM. Cell supernatants were collected 14 days post infection for quantification of HBsAg (Architec Abbott).
as §2, §3

FXR = target: T1, FXR (Homo sapiens, UniProt Q96RI1); test: Reporter gene under control of the HBV Enh2/core promoter region (two FXR response elements) in Huh-7 cell line; type: cell-based; conditions: data not shown
T1 construct: host or cells: Huh-7
T1 sequence (Q96RI1 1-486): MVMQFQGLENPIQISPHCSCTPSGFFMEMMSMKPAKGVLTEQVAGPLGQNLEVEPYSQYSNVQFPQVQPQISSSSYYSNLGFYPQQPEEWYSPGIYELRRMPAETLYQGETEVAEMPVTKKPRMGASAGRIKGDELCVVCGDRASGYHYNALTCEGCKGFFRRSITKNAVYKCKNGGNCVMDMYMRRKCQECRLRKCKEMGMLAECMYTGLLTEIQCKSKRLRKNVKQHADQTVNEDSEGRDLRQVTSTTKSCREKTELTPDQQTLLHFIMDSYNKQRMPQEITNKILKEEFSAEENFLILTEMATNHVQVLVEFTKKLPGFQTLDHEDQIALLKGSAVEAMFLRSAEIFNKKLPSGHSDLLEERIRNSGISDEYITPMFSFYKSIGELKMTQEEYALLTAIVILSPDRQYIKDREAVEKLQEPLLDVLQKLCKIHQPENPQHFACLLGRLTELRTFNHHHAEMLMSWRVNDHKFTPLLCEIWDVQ
Text: A panel of molecules not previously described and original or reference modulators of FXR activity were first tested on the expression of a reporter gene under the control of the HBV Enh2/core promoter region that contains two FXR response elements in the Huh-7 cell line as described in Ramière C, et al., 2008, J Virol; 82: 10832-10840. Molecules were then classified as FXR agonists or antagonists on the basis respectively of the expression increase or decrease of the reporter gene under the transcription control of FXR. […] Thus some molecules decreased the production of HBsAg in a dose-dependent manner. If the active molecules are classified by their antagonist, agonist or agonist “partial” by the screening test in Huh-7 cell with the reporter gene construct, it appears, against previous odds, that the inhibitory effect on the production of HBsAg grew with the tendency of the molecule to be a potent FXR agonist.

[6] = CsA during infection, then FXR agonist

With `CC(C)c1onc(-c2c(Cl)cccc2Cl)c1COc1ccc(/C=C/c2cccc(C(=O)O)c2)c(Cl)c1` [GW4064] the “HBeAg secretion, FXR agonist treatment of cells infected in presence of cyclosporin A” value (HBV [1]; [6]) was “further reduced”, the “effect on HBeAg secretion in supernatant” value (HBV [1]) was “inhibit; also recorded: dose dependent and strong inhibitory effect” and the “APOA1 mRNA expression” value (APOA1) was “decreased”. The “SHP mRNA expression” value (SHP) was “increased”, the “effect on secretion of HBV DNA (virions) in supernatant” value (from here on “effect on secretion of HBV DNA”) (HBV [2]) was “inhibit” and the “expression of HBV pregenomic/precore mRNA” value (HBV [3]) was “inhibit”. The “FXR mRNA expression” value (FXRα) was “inhibit; also recorded: strongly repressed”, the “expression of HBc in infected cells” value (HBV [4]) was “drastically reduce; also recorded: strongly inhibited” and the “HBsAg secretion, FXR agonist treatment of cells infected in presence of cyclosporin A” value (HBV [5]; [6]) was “further reduced”. The “effect on HBsAg secretion in supernatant” value (HBV [5]; HBV infected HepaRG) was “inhibit; also recorded: strong and dose dependent inhibitory effect; also recorded: dose dependent and strong inhibitory effect” and the “inhibition of HBsAg secretion” value (HBV [5]; at 10 μM, HBV infected HepaRG) was “around 70%”.
With `O=C(O)c1cc2c(Cl)c(N3CCN(S(=O)(=O)c4c(Cl)cccc4Cl)CC3)ccc2o1` [PXL007] the “effect on HBeAg secretion in supernatant” value (HBV [1]) was “represses; also recorded: strongly inhibited”, the “effect on secretion of HBV DNA” value (HBV [2]) was “represses; also recorded: strongly inhibited” and the “effect on HBsAg secretion in supernatant” value (HBV [5]; HBV infected HepaRG) was “represses; also recorded: strongly inhibited”.
For `O=C(O)c1cc2c(Br)c(N3CCC(NS(=O)(=O)c4c(Cl)cccc4Cl)CC3)ccc2o1` [PXL0743, 4-Bromo-5-[4-(2,6-dichloro-benzenesulfonylamino)-piperidin-1-yl]-benzofuran-2-carboxylic acid], the “classification as FXR agonist or antagonist by reporter gene expression” value (“classification” for short) (FXR) was “Partial agonists” and the “effect on HBsAg secretion in supernatant” value (HBV [5]; HBV infected HepaRG) was “intermediate profile of inhibition”.
For `O=C(O)c1cc2c(Br)c(N3CCCN(S(=O)(=O)c4ccccc4Cl)CC3)ccc2o1` [PXL0914, 4-Bromo-5-[4-(2-chloro-benzenesulfonyl)-[1,4]diazepan-1-yl]-benzofuran-2-carboxylic acid], the “classification” value (FXR) was “Partial agonists” and the “effect on HBsAg secretion in supernatant” value (HBV [5]; HBV infected HepaRG) was “intermediate profile of inhibition”.
`Cc1c(N2CCN(C(=O)c3c(Cl)cccc3Cl)CC2)ccc2oc(C(=O)O)cc12` [PXL0924, 5-[4-(2,6-Dichloro-benzoyl)-piperazin-1-yl]-4-methyl-benzofuran-2-carboxylic acid] was tested, and the “classification” value (FXR) was “Partial agonists” and the “effect on HBsAg secretion in supernatant” value (HBV [5]; HBV infected HepaRG) was “intermediate profile of inhibition”.
`C[C@H](CCC(=O)O)[C@H]1CC[C@H]2[C@@H]3[C@@H](O)C[C@@H]4C[C@H](O)CC[C@]4(C)[C@H]3CC[C@]12C` [UDCA, ursodesoxycholic acid] was tested, and the “effect on HBeAg secretion in supernatant” value (HBV [1]) was “no effect”, the “effect on HBeAg secretion in supernatant” value (HBV [1]; listed as ursodeoxycholate) was “did not inhibit” and the “effect on secretion of HBV DNA” value (HBV [2]) was “no or limited effect; also recorded: did not modify”. The “expression of HBc in infected cells” value (HBV [4]) was “do not appear to modify; also recorded: did not significantly modify”, the “effect on HBsAg secretion in supernatant” value (HBV [5]; HBV infected HepaRG) was “no effect” and the “effect on HBsAg secretion in supernatant” value (HBV [5]; HBV infected HepaRG, listed as ursodeoxycholate) was “did not inhibit”.
In the case of `Nc1ccn([C@@H]2CS[C@H](CO)O2)c(=O)n1` [lamivudine], the “reduction of viral DNA secreted in supernatant” value (HBV [2]; at 10 μM) is reported as 97%.
